Data from ChEMBL document CHEMBL2073809, “Interrelationship between substrates and inhibitors of human CYP3A and P-glycoprotein” (Pharm Res, 1999).

Legend:
[1] = biological target: T1, ABCB1 (P-glycoprotein) (Homo sapiens, UniProt P08183); assay: TP_TRANSPORTER: inhibition of Digoxin transepithelial transport (basal to apical)(Digoxin: 5 uM, 6beta-hydroxycortisol: 100 uM) in Caco-2 cells; format: functional, cell-based; details: Caco-2, probe digoxin
[2] = biological target: T1, ABCB1 (P-glycoprotein); assay: TP_TRANSPORTER: inhibition of Digoxin transepithelial transport (basal to apical) (Digoxin: 5 uM, S-mephenytoin: 100 uM) in Caco-2 cells; format: functional, cell-based; details: Caco-2, probe digoxin
[3] = biological target: T2, ATP-dependent translocase ABCB1 (Homo sapiens, UniProt P08183); assay: TP_TRANSPORTER: inhibition of Digoxin transepithelial transport (basal to apical)(Digoxin: 5 uM, 1-hydroxymidazolam: 100 uM) in Caco-2 cells; format: functional, cell-based; details: caco-2, 100 µM
[4] = biological target: T2, ATP-dependent translocase ABCB1; assay: TP_TRANSPORTER: transepithelial transport (basal to apical) in MDR1-expressing LLC-PK1 cells; format: functional, cell-based; details: pig
[5] = biological target: T1, ABCB1 (P-glycoprotein); assay: TP_TRANSPORTER: inhibition of Digoxin transepithelial transport (basal to apical) (Digoxin: 5 uM, Erythromycin: 100 uM) in Caco-2 cells; format: functional, cell-based; details: Caco-2, probe digoxin
[6] = biological target: T1, ABCB1 (P-glycoprotein); assay: TP_TRANSPORTER: inhibition of Digoxin transepithelial transport (basal to apical) (Digoxin: 5 uM, Lovastatin: 100 uM) in Caco-2 cells; format: functional, cell-based; details: Caco-2, probe digoxin
[7] = biological target: T1, ABCB1 (P-glycoprotein); assay: TP_TRANSPORTER: inhibition of Digoxin transepithelial transport (basal to apical)(Digoxin: 5 uM, Midazolam: 100 uM) in Caco-2 cells; format: functional, cell-based; details: Caco-2, probe digoxin
[8] = biological target: T1, ABCB1 (P-glycoprotein); assay: TP_TRANSPORTER: inhibition of Digoxin transepithelial transport (basal to apical)(Digoxin: 5 uM, Tamoxifen: 100 uM) in Caco-2 cells; format: functional, cell-based; details: Caco-2, probe digoxin
[9] = biological target: T1, ABCB1 (P-glycoprotein); assay: TP_TRANSPORTER: inhibition of Digoxin transepithelial transport (basal to apical)(Digoxin: 5 uM, Terfenadine: 10 uM) in Caco-2 cells; format: functional, cell-based; details: Caco-2, probe digoxin
[10] = biological target: T3, ATP-dependent translocase ABCB1 (Mus musculus, UniProt P21447); assay: TP_TRANSPORTER: no change in plasma concentration in mdr1a(-/-) mouse; format: functional, organism-based; details: in vivo
[11] = biological target: T3, ATP-dependent translocase ABCB1; assay: TP_TRANSPORTER: no change in kidney concentration in mdr1a(-/-) mouse; format: functional, organism-based; details: in vivo
[12] = biological target: T3, ATP-dependent translocase ABCB1; assay: TP_TRANSPORTER: no change in liver concentration in mdr1a(-/-) mouse; format: functional, organism-based; details: in vivo

T3 sequence (P21447 whole entry): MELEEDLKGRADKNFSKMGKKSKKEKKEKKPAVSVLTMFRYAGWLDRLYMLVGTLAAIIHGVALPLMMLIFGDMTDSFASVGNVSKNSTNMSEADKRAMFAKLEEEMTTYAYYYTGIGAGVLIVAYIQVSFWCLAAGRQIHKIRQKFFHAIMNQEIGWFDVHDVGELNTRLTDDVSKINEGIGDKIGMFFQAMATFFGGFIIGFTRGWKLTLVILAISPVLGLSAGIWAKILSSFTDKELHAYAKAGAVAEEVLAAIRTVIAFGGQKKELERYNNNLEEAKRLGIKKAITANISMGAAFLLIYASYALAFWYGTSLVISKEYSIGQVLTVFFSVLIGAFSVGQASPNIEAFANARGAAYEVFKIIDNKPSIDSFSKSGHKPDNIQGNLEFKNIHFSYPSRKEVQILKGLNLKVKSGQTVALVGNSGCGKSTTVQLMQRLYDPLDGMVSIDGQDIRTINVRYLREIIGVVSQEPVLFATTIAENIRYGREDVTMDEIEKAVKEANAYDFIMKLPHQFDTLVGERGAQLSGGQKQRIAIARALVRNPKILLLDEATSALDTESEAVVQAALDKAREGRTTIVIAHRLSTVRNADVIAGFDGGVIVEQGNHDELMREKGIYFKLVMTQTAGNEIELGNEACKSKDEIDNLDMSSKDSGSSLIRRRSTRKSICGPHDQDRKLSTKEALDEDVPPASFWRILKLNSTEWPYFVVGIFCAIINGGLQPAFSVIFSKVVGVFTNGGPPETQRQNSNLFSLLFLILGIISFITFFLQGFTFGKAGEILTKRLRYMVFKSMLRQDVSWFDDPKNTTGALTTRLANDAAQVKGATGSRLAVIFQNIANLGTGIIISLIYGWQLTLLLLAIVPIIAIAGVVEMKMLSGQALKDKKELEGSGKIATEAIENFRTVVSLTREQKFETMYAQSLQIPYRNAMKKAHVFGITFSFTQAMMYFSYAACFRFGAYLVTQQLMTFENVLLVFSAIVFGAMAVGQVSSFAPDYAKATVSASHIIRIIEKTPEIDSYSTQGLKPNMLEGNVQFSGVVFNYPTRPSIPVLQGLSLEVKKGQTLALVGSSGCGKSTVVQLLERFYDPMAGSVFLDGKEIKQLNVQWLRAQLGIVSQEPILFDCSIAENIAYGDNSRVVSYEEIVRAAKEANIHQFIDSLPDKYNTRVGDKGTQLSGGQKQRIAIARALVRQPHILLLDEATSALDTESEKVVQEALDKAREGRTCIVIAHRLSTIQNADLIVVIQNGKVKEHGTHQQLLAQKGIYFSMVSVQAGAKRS
T1 sequence (P08183 whole entry): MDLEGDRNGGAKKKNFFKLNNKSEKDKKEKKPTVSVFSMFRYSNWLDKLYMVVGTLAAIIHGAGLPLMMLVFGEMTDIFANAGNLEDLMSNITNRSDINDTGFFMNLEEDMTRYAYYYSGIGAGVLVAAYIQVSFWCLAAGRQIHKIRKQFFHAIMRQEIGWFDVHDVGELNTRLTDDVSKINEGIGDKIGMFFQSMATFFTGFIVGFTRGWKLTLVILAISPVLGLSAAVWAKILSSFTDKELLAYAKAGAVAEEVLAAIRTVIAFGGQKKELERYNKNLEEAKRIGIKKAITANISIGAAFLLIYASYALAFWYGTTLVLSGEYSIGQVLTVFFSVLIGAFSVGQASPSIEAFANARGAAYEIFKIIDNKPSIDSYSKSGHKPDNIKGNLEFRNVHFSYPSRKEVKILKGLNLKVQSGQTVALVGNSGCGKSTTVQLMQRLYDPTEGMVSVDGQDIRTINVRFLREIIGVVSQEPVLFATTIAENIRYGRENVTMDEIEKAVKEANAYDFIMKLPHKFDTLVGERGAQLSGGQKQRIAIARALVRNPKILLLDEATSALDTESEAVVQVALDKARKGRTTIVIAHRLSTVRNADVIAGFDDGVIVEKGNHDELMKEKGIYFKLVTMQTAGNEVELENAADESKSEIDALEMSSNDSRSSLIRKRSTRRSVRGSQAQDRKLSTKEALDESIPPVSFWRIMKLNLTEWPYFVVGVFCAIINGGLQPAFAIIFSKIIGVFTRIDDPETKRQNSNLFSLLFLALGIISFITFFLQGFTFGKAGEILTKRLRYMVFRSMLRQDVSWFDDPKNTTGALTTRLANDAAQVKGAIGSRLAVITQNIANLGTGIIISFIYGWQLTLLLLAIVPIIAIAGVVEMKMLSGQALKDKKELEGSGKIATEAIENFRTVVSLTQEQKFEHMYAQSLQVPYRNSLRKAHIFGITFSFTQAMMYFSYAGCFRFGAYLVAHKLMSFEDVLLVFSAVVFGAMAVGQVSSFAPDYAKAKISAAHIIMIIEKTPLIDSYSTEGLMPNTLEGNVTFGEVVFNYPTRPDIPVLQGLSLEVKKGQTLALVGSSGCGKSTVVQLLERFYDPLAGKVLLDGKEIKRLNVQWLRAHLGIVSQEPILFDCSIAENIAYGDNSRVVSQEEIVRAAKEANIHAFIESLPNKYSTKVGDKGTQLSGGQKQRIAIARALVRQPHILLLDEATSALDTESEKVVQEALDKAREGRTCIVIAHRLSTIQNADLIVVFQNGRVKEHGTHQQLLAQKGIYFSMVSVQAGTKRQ
T2 sequence (P08183 whole entry): as above

`C[C@]12CCC(=O)C=C1[C@H](O)C[C@@H]1[C@@H]2[C@@H](O)C[C@@]2(C)[C@H]1CC[C@]2(O)C(=O)CO` gave an inhibition at 100 µM [1] of 57%.
`CC[C@@]1(c2ccccc2)NC(=O)N(C)C1=O` was tested, and the inhibition at 100 µM [2] was 42%.
`OCc1ncc2n1-c1ccc(Cl)cc1C(c1ccccc1F)=NC2` [ALPHA-HYDROXY-MIDAZOLAM] was tested, and the Activity [3] was 63.
With `N=C(N)N1CCc2ccccc2C1` [DEBRISOQUIN] the Activity [4] was “substrate [+]”.
With `CC[C@H]1OC(=O)[C@H](C)[C@@H](O[C@H]2C[C@@](C)(OC)[C@@H](O)[C@H](C)O2)[C@H](C)[C@@H](O[C@@H]2O[C@H](C)C[C@H](N(C)C)[C@H]2O)[C@](C)(O)C[C@@H](C)C(=O)[C@H](C)[C@@H](O)[C@]1(C)O` [ERYTHROMYCIN] the inhibition at 100 µM [5] was 101%.
Molecule `CC[C@H](C)C(=O)O[C@H]1C[C@@H](C)C=C2C=C[C@H](C)[C@H](CC[C@@H]3C[C@@H](O)CC(=O)O3)[C@H]21` [LOVASTATIN] has an inhibition at 100 µM [6] of 65%.
For `Cc1ncc2n1-c1ccc(Cl)cc1C(c1ccccc1F)=NC2` [MIDAZOLAM], the Activity [4] was “is not a substrate [-]” and the inhibition at 100 µM [7] was 74%.
With `COC(=O)C1=C(C)NC(C)=C(C(=O)OC)C1c1ccccc1[N+](=O)[O-]` [NIFEDIPINE] the Activity [4] was “is not a substrate [-]”.
`CC/C(=C(\c1ccccc1)c1ccc(OCCN(C)C)cc1)c1ccccc1` [TAMOXIFEN] gave an inhibition at 100 µM [8] of 86%.
Molecule `CC(C)(C)c1ccc(C(O)CCCN2CCC(C(O)(c3ccccc3)c3ccccc3)CC2)cc1` (centres undefined) [TERFENADINE] has an inhibition at 10 µM [9] of 112%.
For IVERMECTIN, the Activity [10] was “is not a substrate [-]”, the Activity [11] was “is not a substrate [-]” and the Activity [12] was “is not a substrate [-]”.
